Measured values: patent US20230348447A1, “OXAZOLIDINONE COMPOUNDS, LIPOSOME COMPOSITIONS COMPRISING OXAZOLIDINONE COMPOUNDS AND METHOD OF USE THEREOF” (priority 2020, published 2023)
≈ marks a conversion by molar mass, not a printed value. Read-outs that look alike come from different tables or passages of the source.

Columns and labels:
[1] = tested on: African green monkey kidney (Vero; ATCC # CCL81) cells; assay: In vitro cytotoxicity (PrestoBlue cell viability), Vero; assay type: cell-based
MRSA ATCC 43300 = assay: MIC against methicillin resistant Staphylococcus aureus (MRSA); conditions: read-out: MRSA MIC, ATCC 43300
M.tb Erdman = assay: Broth microdilution MIC with Alamar blue endpoint (MABA) / OD600; assay type: cell-based, Mycobacterium tuberculosis
[2] = tested on: mitochondrial protein synthesis (COX-1/SDH-A ratio) in H9C2 rat heart myoblast cells; assay: Mitochondrial protein synthesis inhibition (MitoBiogenesis in-cell ELISA, COX-1/SDH-A); assay type: cell-based; conditions: 120 h, five days, read-out: MPS IC50
[3] = tested on: M. Tuberculosis Erdman or H37Rv vs VERO or HepG2 cells; assay: Selectivity Index (mammalian cell IC50 / bacterial MIC); parameters: species or system Mycobacterium tuberculosis
M.tb H37Rv = assay: Broth microdilution MIC with Alamar blue endpoint (MABA) / OD600; assay type: cell-based, Mycobacterium tuberculosis
MRSA 880 NR-49120 = assay: MIC against methicillin resistant Staphylococcus aureus (MRSA); conditions: read-out: MRSA MIC, 880 NR-49120
MRSA ATCC BAA-1556 = assay: as above
[4] = tested on: human hepatocyte/liver (HepG2; ATCC #HB8065) cells; assay: In vitro cytotoxicity (PrestoBlue cell viability), HepG2; assay type: cell-based
M. chelonae = assay: MIC in nontuberculosis mycobacteria (microbroth dilution, resazurin); assay type: cell-based, Mycobacterium chelonae; conditions: Mycobacteroides chelonae, read-out: MIC
[5] = Liposome loading / encapsulation efficiency (General protocol); conditions: for maximum drug load: HSPC:Chol 3:2, 0.5 mol% PEG-DSG (Example 14)
M.avium = assay: MIC in nontuberculosis mycobacteria (microbroth dilution, resazurin); assay type: cell-based, Mycobacterium avium; conditions: Mycobacterium avium, read-out: MIC
[6] = Aqueous solubility (visually clear solutions); assay type: physicochemical; conditions: aqueous, 1 N HCl and/or water added
Protocol: Working stocks of the compounds were prepared as follows: to an aliquot of a compound (free base) in a powder form 1-1.5 equivalents of HCl in the form of 1 N aqueous solution was added, and the mixture was vortexed until homogeneity. To the resulting cake or syrup, water was added typically to the final 10 mg/ml, and complete dissolution was observed. In some instances, 0.95 equivalents of HCl were added to the free base form of the drug, and 20 mg/ml stock solution was prepared.
Aqueous solubility of the compounds of the present disclosure is illustrated by the following observations of obtaining visually clear solutions: […]

M. abscessus = assay: MIC in nontuberculosis mycobacteria (microbroth dilution, resazurin); assay type: cell-based, Mycobacterium abscessus; conditions: Mycobacteroides abscessus, read-out: MIC
[7] = In vitro burst release of liposomal drug in plasma, human; conditions: mouse or human plasma, 20 min 37° C., 0.5 M AS liposomes, 40-65 mol% Chol (FIG. 5A, 5B)
Protocol: The plasma was thawed, if necessary, adjusted to pH 7.4 with 1 N HCl, and sequentially filtered through glass microfiber filters (GF/C), 1 µm polyethersulfone (PES), and 0.22 µm PES filters. Plasma (80 µl) was mixed with liposomal drug formulations (20 µl) in a 0.5 ml Eppendorf tube. The mixture was subsequently incubated for 20 min at 37° C. and then put into chilled water.
Incubation time was 20 min.

M. massiliense = assay: MIC in nontuberculosis mycobacteria (microbroth dilution, resazurin); assay type: cell-based, Mycobacterium massiliense
M. kansasii = assay: as above; assay type: cell-based; conditions: Mycobacterium kansasii, read-out: MIC
[8] = read-out: MRSA MIC, ATCC BAA-1556
[9] = Chlorocebus sabaeus, Vero, 72 h; read-out: Cell viability IC50, VERO
[10] = Mycobacterium tuberculosis, ERDMAN; read-out: Mycobacterium tuberculosis MIC, Erdman
[11] = Mycobacterium tuberculosis; M. tuberculosis Erdman / H37Rv, strains not separated; read-out: MIC
[12] = Mycobacterium tuberculosis, H37RV; as determined in Example 2; read-out: MIC (H37Rv)
[13] = Mycobacterium tuberculosis, H37RV; read-out: Mycobacterium tuberculosis MIC, H37Rv
[14] = Homo sapiens, HepG2, 72 h; read-out: Cell viability IC50, HepG2

What does the source list for `Cl.Cl.NCCn1nnc(-c2ccc(-c3ccc(N4C[C@H](CN)OC4=O)cc3F)cn2)n1` [AKG-29]?
IC50 ([1]; Chlorocebus sabaeus, Vero, 72 h, read-out: Cell viability IC50, VERO): 110 µg/mL; MIC (MRSA ATCC 43300): > 50 µg/mL; MIC (M.tb Erdman; Mycobacterium tuberculosis, ERDMAN, read-out: Mycobacterium tuberculosis MIC, Erdman): 0.25 µg/mL; IC50 [2]: 4.11 µg/mL; Selectivity Index (SI) Erd/HepG2 [3]: 297.6; Selectivity Index (SI) Erd/VERO [3]: 439.6; MIC (M.tb H37Rv; Mycobacterium tuberculosis, H37RV, read-out: MIC (H37Rv)): 0.125 µg/mL; MIC (M.tb H37Rv; Mycobacterium tuberculosis, H37RV, read-out: Mycobacterium tuberculosis MIC, H37Rv): 0.125 µg/mL; MIC (MRSA 880 NR-49120): 50 µg/mL; MIC (MRSA ATCC BAA-1556; read-out: MRSA MIC): > 50 µg/mL; MIC (MRSA ATCC BAA-1556; [8]): 50 µg/mL; IC50 ([4]; Homo sapiens, HepG2, 72 h, read-out: Cell viability IC50, HepG2): 74.4 µg/mL

For `CC(=O)NC[C@H]1CN(c2ccc(-c3ccc(-c4nnn(CCN(C)C)n4)nc3)c(F)c2)C(=O)O1` [AKG-38], which IC50 [1, 9] is on record?
The IC50 was 395 µg/mL (≈ 843 µM).

What about the MIC (MRSA ATCC 43300) of the same compound?
The MIC was 1.85 µg/mL (≈ 3.95 µM).

And the MIC (M.tb Erdman; [10])?
The MIC was 0.06 µg/mL (≈ 0.128 µM).

What about the MIC (M.tb Erdman; [11]) of the same compound?
The MIC was 0.06 µg/mL (≈ 0.128 µM).

And the IC50 [2]?
The IC50 was 0.041 µg/mL (≈ 0.0875 µM).

What about the MIC (M. chelonae; M. chelonae strain 49) of the same compound?
Its MIC is 0.06 µg/mL (≈ 0.128 µM).

What about the MIC (M. chelonae; M. chelonae strain 69) of the same compound?
Its MIC is 0.5 µg/mL (≈ 1.07 µM).

And the MIC (M. chelonae; M. chelonae strain 35752)?
Its MIC is 0.06 µg/mL (≈ 0.128 µM).

And the MIC (M.tb H37Rv; [12])?
The MIC was 0.06 µg/mL (≈ 0.128 µM).

What about the MIC (M.tb H37Rv; [13]) of the same compound?
Its MIC is 0.06 µg/mL (≈ 0.128 µM).

And the maximum drug load ([5]; 0.5 M AS)?
The maximum drug load was 818-842 g/mol PhL.

What about the maximum drug load ([5]; 1 N TEA-SOS) of the same compound?
Its maximum drug load is 989 g/mol PhL.

And the “liposome aggregation during drug loading” value ([5]; 30 mol% cholesterol, 1 N TEA-SOS, AKG-28: 5 mol% PEG-DSG or PEG-DSPE, AKG-38: 5 mol% PEG-DSPE)?
The value was “irreversibly aggregated during the drug loading”.

And the drug load ([5]; 30 mol% cholesterol, 5 mol % PEG-DSG, 1 N TEA-SOS)?
The drug load was 462.4 g/mol PhL.

What about the MIC (M.avium; M. avium sbsp. avium strain 2285 R) of the same compound?
Its MIC is 0.06 µg/mL (≈ 0.128 µM).

What about the MIC (M.avium; M. avium sbsp. avium strain 2285 S) of the same compound?
The MIC was 0.125 µg/mL (≈ 0.267 µM).

And the MIC (M.avium; M. avium sbsp. avium strain 3993)?
Its MIC is 0.125 µg/mL (≈ 0.267 µM).

What about the MIC (MRSA 880 NR-49120) of the same compound?
Its MIC is 0.617 µg/mL (≈ 1.32 µM).

And the “Concentration % (w/w) of free base (visually clear solution)” value [6]?
The value was 7.1 % (w/w).

What about the MIC (M. abscessus; M. abscessus sbsp. abscessus strain 21) of the same compound?
Its MIC is 0.06 µg/mL (≈ 0.128 µM).

What about the MIC (M. abscessus; M. abscessus sbsp. abscessus strain 1513) of the same compound?
The MIC was 32 µg/mL (≈ 68.3 µM).

And the MIC (M. abscessus; M. abscessus sbsp. abscessus strain 1948)?
Its MIC is 0.06 µg/mL (≈ 0.128 µM).

And the MIC (MRSA ATCC BAA-1556; [8])?
Its MIC is 1.85 µg/mL (≈ 3.95 µM).

What about the “burst release phenomenon in plasma in vitro” value [7] of the same compound?
Its value is “observed in both human and mouse plasma for the formulations with cholesterol content of 40 mol.% and 45 mol.%, but not at cholesterol content of 50 mol.% or more”.

What about the MIC (M. massiliense; M. massiliense strain M154) of the same compound?
The MIC was 0.25 µg/mL (≈ 0.534 µM).

And the MIC (M. massiliense; Mycobacteroides abscessus, CIP108297, M. massiliense strain CIP 108297, read-out: MIC)?
Its MIC is 0.5 µg/mL (≈ 1.07 µM).

And the MIC (M. massiliense; Mycobacteroides abscessus, M. massiliense strain CRM0019, read-out: MIC)?
The MIC was 0.25 µg/mL (≈ 0.534 µM).

What about the MIC (M. kansasii; M. kansasii strain 662) of the same compound?
Its MIC is over 32 µg/mL.

What about the MIC (M. kansasii; M. kansasii strain 732) of the same compound?
Its MIC is 0.03 µg/mL (≈ 0.064 µM).

What about the MIC (M. kansasii; M. kansasii strain 824) of the same compound?
Its MIC is 0.06 µg/mL (≈ 0.128 µM).

And the MIC (M. kansasii; M. kansasii strain MK13D6)?
Its MIC is 0.03 µg/mL (≈ 0.064 µM).

What about the MIC (M. kansasii; M. kansasii strain WT171017) of the same compound?
The MIC was 0.03 µg/mL (≈ 0.064 µM).

And the IC50 [4, 14]?
The IC50 was 97 µg/mL (≈ 207 µM).

What does the source list for `CCN(CC)CCn1nnc(-c2ccc(-c3ccc(N4C[C@H](CNC(C)=O)OC4=O)cc3F)cn2)n1` [AKG-39]?
IC50 [1, 9]: 201 µg/mL (≈ 405 µM); MIC (MRSA ATCC 43300): 1.85 µg/mL (≈ 3.73 µM); MIC (M.tb Erdman; [10]): 0.5 µg/mL (≈ 1.01 µM); MIC (M.tb Erdman; [11]): 0.5 µg/mL (≈ 1.01 µM); IC50 [2]: 0.06 µg/mL (≈ 0.121 µM); Selectivity Index (SI) Erd/HepG2 [3]: 140.0; Selectivity Index (SI) Erd/VERO [3]: 402.0; MIC (M.tb H37Rv; [12]): 0.5 µg/mL (≈ 1.01 µM); MIC (M.tb H37Rv; [13]): 0.5 µg/mL (≈ 1.01 µM); MIC (MRSA 880 NR-49120): 1.85 µg/mL (≈ 3.73 µM); MIC (MRSA ATCC BAA-1556; [8]): 1.85 µg/mL (≈ 3.73 µM); IC50 [4, 14]: 70 µg/mL (≈ 141 µM)

With `CCN(CC)CCCn1nnc(-c2ccc(-c3ccc(N4C[C@H](CNC(C)=O)OC4=O)cc3F)cn2)n1` [AKG-40] as the compound, how does the IC50 [1, 9] read?
The IC50 was over 250 µg/mL.

And the MIC (MRSA ATCC 43300)?
The MIC was 5.55 µg/mL (≈ 10.9 µM).

What about the “Mycobacterium tuberculosis MIC, Erdman” value (M.tb Erdman) of the same compound?
Its value is 1 to 2 µg/mL.

And the MIC (M.tb Erdman; [10])?
The MIC was 1 µg/mL (≈ 1.96 µM).

And the IC50 [2]?
The IC50 was 0.064 µg/mL (≈ 0.125 µM).

And the “Selectivity Index (SI) Erd/HepG2” value [3]?
Its value is 113.0.

What about the “Selectivity Index (SI) Erd/VERO” value [3] of the same compound?
Its value is over 250.0.

What about the “Mycobacterium tuberculosis MIC, H37Rv” value (M.tb H37Rv) of the same compound?
Its value is 0.5 µg/mL.

What about the MIC (M.tb H37Rv; [12]) of the same compound?
The MIC was 0.5 µg/mL (≈ 0.979 µM).

And the MIC (M.tb H37Rv; [13])?
Its MIC is 0.5 µg/mL (≈ 0.979 µM).

And the MIC (MRSA 880 NR-49120)?
The MIC was 1.85 µg/mL (≈ 3.62 µM).

And the MIC (MRSA ATCC BAA-1556; [8])?
Its MIC is 1.85 µg/mL (≈ 3.62 µM).

What about the IC50 [4, 14] of the same compound?
The IC50 was 113 µg/mL (≈ 221 µM).
